Starred links: 1 amine or outer side, 2 acyl side, 3 side chain; linkers in the order of their positions; H or OH if unused. Groups on a side chain read outwards from the residue. No end group written: not given here. *: point of attachment. γGlu = O=C(O)[C@H](CCC(=O)[*:2])N[*:1]; Palmitoyl = CCCCCCCCCCCCCCCC(=O)*

The test system of the experiment is rats with heroin self-administration experience. Kind of experiment: Cue-induced heroin seeking. The class given is in vivo, rat. Particulars: 0.3 mg/kg sc.

As to “liraglutide (HAEGTFTSDVSSYLEGQAAK([γGlu-Palmitoyl])EFIAWLVRGRG; chains of the INN, looked up)”, the “Minimum effective pretreatment time” value is “between four and six”.

Source of the values: paper doi:10.1101/2021.09.15.460527v1 (bioRxiv, 2021).
